# According to patent US20240252474A1, “METHODS AND COMPOSITIONS COMPRISING A CARDIO-TOLERATED HDAC INHIBITOR” (HUYABIO International, LLC, priority 2023, published 2024):
# Assay: Phase 1b safety and tolerability of HBI-8000 combined with nivolumab (DLTs, TEAEs)
# Format: in vivo
# Description: The present example, was a Phase Ib/2 open-label dose finding study for HBI-8000 (also referred to in the art as “chidamide” or “tucidinostat” and also referred to herein as a compound of formula I) in combination with nivolumab in patients with advanced solid tumors, including melanoma, RCC (renal cell carcinoma), and NSCLC (non-small cell lung cancer). This study was conducted in accordance with Good Clinical Practice guidelines and the Declaration of Helsinki and with assurance/approval from the US Department of Health and Human Services; the protocol was approved by the institutional review boards or ethics committees of all participating sites. All patients provided written informed consent to participate before enrollment. […]
# HBI-8000 at three dose levels (20 mg, 30 mg, and 40 mg) given orally twice a week (BIW) were evaluated. Doses were taken approximate 30 minutes after a meal. The starting dose (20 mg) was selected based on pharmacokinetic profiles established for monotherapy in Japanese patients with T-cell lymphoma.
# The decision to escalate the dose was based on the conventional 3+3 design and observed incidences of dose-limiting toxicities (DLTs). Each treatment cycle was defined as 28 days. […] Subjects experiencing DLT within the first two weeks after having received 100% of assigned dose of HBI-8000 are also evaluable for DLT. Unacceptable toxicities were defined as grade 3 or higher non-hematologic and hematologic toxicities with clinical complications. Unacceptable toxicities observed over the first 28 days following HBI-8000 administration were considered as DLTs. […] HBI-8000 administration continued until disease progression or unacceptable toxicity was observed. The efficacy of the combination was further evaluated in an expanded cohort of selected patient populations at RP2D based on an objective response rate according to Response Evaluation Criteria in Solid Tumors (RECIST) version 1.1 criteria, progression-free survival, and duration of responses.
# Safety evaluations included physical examinations, vital signs, ECGs, ECOG performance status, and laboratory tests.
# Statistical analyses of safety, tolerability, and anti-tumor activity were primarily descriptive in nature. Toxicities were tabulated by type and grade. The safety population included all patients who received ≥1 dose of HBI-8000 and nivolumab. Continuous variables were summarized using descriptive statistics and categorical variables were summarized with number and percentage at each category. Pharmacokinetic parameters were derived using noncompartmental methods with Phoenix® WinNonlin® Version 6.4 (Certara, L. P., Princeton, NJ, USA).
# [1] = 20 mg HBI-8000 BIW + nivolumab, N = 3
# [2] = 30 mg HBI-8000 BIW + nivolumab, N = 7
# [3] = 40 mg HBI-8000 BIW + nivolumab, N = 7
smiles,measurement,setting,value
"Nc1cc(F)ccc1NC(=O)c1ccc(CNC(=O)/C=C/c2cccnc2)cc1 [HBI-8000, N-(2-amino-4-fluorophenyl)-4-[[[(2E)-1-oxo-3-(3-pyridinyl)-2-propen-1-yl]amino]methyl]benzamide]","Alanine aminotransferase increased, All, G < 3",[1],1 (33) n (%)
same,"Alanine aminotransferase increased, Related Both, Any G",[1],1 (33) n (%)
same,"Any SAE, number of subjects",[1],1 n
same,"Any TEAE, number of subjects",[1],3 n
same,"Aspartate aminotransferase increased, All, G < 3",[1],1 (33) n (%)
same,"Aspartate aminotransferase increased, Related Both, Any G",[1],1 (33) n (%)
same,"Decreased appetite, All, G < 3",[1],1 (33) n (%)
same,"Dehydration, All, G < 3",[1],1 (33) n (%)
same,"Diarrhoea, All, G < 3",[1],2 (67) n (%)
same,"Diarrhoea, Related Both, Any G",[1],1 (33) n (%)
same,"Dizziness, All, G < 3",[1],1 (33) n (%)
same,"Dyspnoea, All, G < 3",[1],2 (67) n (%)
same,"Dyspnoea, Related Both, Any G",[1],1 (33) n (%)
same,"Fatigue, All, G < 3",[1],2 (67) n (%)
same,"Fatigue, All, G ≥ 3",[1],1 (33) n (%)
same,"Fatigue, Related Both, Any G",[1],1 (33) n (%)
same,"Headache, All, G < 3",[1],1 (33) n (%)
same,"Hypocalcaemia, All, G < 3",[1],1 (33) n (%)
same,"Hypocalcaemia, All, G ≥ 3",[1],1 (33) n (%)
same,"Hypokalaemia, All, G ≥ 3",[1],1 (33) n (%)
same,"Nausea, All, G < 3",[1],2 (67) n (%)
same,"Nausea, All, G ≥ 3",[1],1 (33) n (%)
same,"Oedema peripheral, All, G < 3",[1],1 (33) n (%)
same,"SAE related to HBI-8000 & Nivolumab, number of subjects",[1],0 n
same,"SAE related to HBI-8000 alone, number of subjects",[1],0 n
same,"TEAE related to HBI-8000 & Nivolumab, number of subjects",[1],3 n
same,"TEAE related to HBI-8000 alone, number of subjects",[1],0 n
same,"TEAE resulting in discontinuation of HBI-8000 alone, number of subjects",[1],2 n
same,"TEAE resulting in discontinuation of both HBI-8000 and Nivo, number of subjects",[1],0 n
same,"Vomiting, All, G < 3",[1],1 (33) n (%)
same,"Weight decreased, All, G < 3",[1],1 (33) n (%)
same,"Alanine aminotransferase increased, All, G < 3",[2],2 (29) n (%)
same,"Alanine aminotransferase increased, Related Both, Any G",[2],2 (29) n (%)
same,"Anaemia, All, G < 3",[2],4 (57) n (%)
same,"Anaemia, All, G ≥ 3",[2],1 (14) n (%)
same,"Anaemia, Related Both, Any G",[2],3 (43) n (%)
same,"Any SAE, number of subjects",[2],6 n
same,"Any TEAE, number of subjects",[2],7 n
same,"Aspartate aminotransferase increased, All, G < 3",[2],2 (29) n (%)
same,"Aspartate aminotransferase increased, Related Both, Any G",[2],2 (29) n (%)
same,"Atrial fibrillation, All, G < 3",[2],1 (14) n (%)
same,"Back pain, All, G < 3",[2],4 (57) n (%)
same,"Back pain, Related Both, Any G",[2],1 (14) n (%)
same,"Contusion, All, G < 3",[2],1 (14) n (%)
same,"Contusion, Related Both, Any G",[2],1 (14) n (%)
same,"Decreased appetite, All, G < 3",[2],4 (57) n (%)
same,"Decreased appetite, All, G ≥ 3",[2],1 (14) n (%)
same,"Decreased appetite, Related Both, Any G",[2],3 (43) n (%)
same,"Decreased appetite, Related HBI, Any G",[2],1 (14) n (%)
same,"Dehydration, All, G < 3",[2],2 (29) n (%)
same,"Dehydration, All, G ≥ 3",[2],1 (14) n (%)
same,"Dehydration, Related Both, Any G",[2],1 (14) n (%)
same,"Diarrhoea, All, G < 3",[2],3 (43) n (%)
same,"Diarrhoea, Related Both, Any G",[2],3 (43) n (%)
same,"Dizziness, All, G < 3",[2],2 (29) n (%)
same,"Dizziness, Related Both, Any G",[2],1 (14) n (%)
same,"Dizziness, Related HBI, Any G",[2],1 (14) n (%)
same,"Dyspnoea, All, G < 3",[2],4 (57) n (%)
same,"Dyspnoea, Related Both, Any G",[2],1 (14) n (%)
same,"Fall, All, G < 3",[2],2 (29) n (%)
same,"Fall, Related Both, Any G",[2],1 (14) n (%)
same,"Fatigue, All, G < 3",[2],5 (71) n (%)
same,"Fatigue, All, G ≥ 3",[2],1 (14) n (%)
same,"Fatigue, Related Both, Any G",[2],4 (57) n (%)
same,"Headache, All, G < 3",[2],2 (29) n (%)
same,"Headache, Related Both, Any G",[2],1 (14) n (%)
same,"Hypocalcaemia, All, G < 3",[2],3 (43) n (%)
same,"Hypocalcaemia, Related Both, Any G",[2],2 (29) n (%)
same,"Hypokalaemia, All, G < 3",[2],2 (29) n (%)
same,"Hypokalaemia, All, G ≥ 3",[2],1 (14) n (%)
same,"Hypokalaemia, Related Both, Any G",[2],1 (14) n (%)
same,"Hypophosphataemia, All, G < 3",[2],3 (43) n (%)
same,"Hypophosphataemia, All, G ≥ 3",[2],3 (43) n (%)
same,"Hypophosphataemia, Related Both, Any G",[2],2 (29) n (%)
same,"Hypophosphataemia, Related HBI, Any G",[2],1 (14) n (%)
same,"Hypotension, All, G < 3",[2],1 (14) n (%)
same,"Hypotension, All, G ≥ 3",[2],2 (29) n (%)
same,"Hypotension, Related Both, Any G",[2],1 (14) n (%)
same,"Hypoxia, All, G < 3",[2],1 (14) n (%)
same,"Hypoxia, All, G ≥ 3",[2],3 (43) n (%)
same,"Hypoxia, Related Both, Any G",[2],1 (14) n (%)
same,"Lipase increased, All, G < 3",[2],3 (43) n (%)
same,"Lipase increased, All, G ≥ 3",[2],4 (57) n (%)
same,"Lipase increased, Related Both, Any G",[2],2 (29) n (%)
same,"Lymphocyte count decreased, All, G < 3",[2],3 (43) n (%)
same,"Lymphocyte count decreased, All, G ≥ 3",[2],3 (43) n (%)
same,"Lymphocyte count decreased, Related Both, Any G",[2],2 (29) n (%)
same,"Nausea, All, G < 3",[2],3 (43) n (%)
same,"Nausea, Related HBI, Any G",[2],1 (14) n (%)
same,"Neutrophil count decreased, All, G < 3",[2],2 (29) n (%)
same,"Neutrophil count decreased, All, G ≥ 3",[2],1 (14) n (%)
same,"Neutrophil count decreased, Related Both, Any G",[2],1 (14) n (%)
same,"Neutrophil count decreased, Related HBI, Any G",[2],1 (14) n (%)
same,"Non-cardiac chest pain, All, G < 3",[2],2 (29) n (%)
same,"Oedema peripheral, All, G < 3",[2],4 (57) n (%)
same,"Oedema peripheral, All, G ≥ 3",[2],1 (14) n (%)
same,"Oedema peripheral, Related Both, Any G",[2],1 (14) n (%)
same,"Oedema peripheral, Related HBI, Any G",[2],1 (14) n (%)
same,"Platelet count decreased, All, G < 3",[2],4 (57) n (%)
same,"Platelet count decreased, Related Both, Any G",[2],3 (43) n (%)
same,"Platelet count decreased, Related HBI, Any G",[2],1 (14) n (%)
same,"Pleural effusion, All, G < 3",[2],3 (43) n (%)
same,"Pleural effusion, Related Both, Any G",[2],1 (14) n (%)
same,"SAE related to HBI-8000 & Nivolumab, number of subjects",[2],0 n
same,"SAE related to HBI-8000 alone, number of subjects",[2],0 n
same,"TEAE related to HBI-8000 & Nivolumab, number of subjects",[2],5 n
same,"TEAE related to HBI-8000 alone, number of subjects",[2],4 n
same,"TEAE resulting in discontinuation of HBI-8000 alone, number of subjects",[2],1 n
same,"TEAE resulting in discontinuation of both HBI-8000 and Nivo, number of subjects",[2],1 n
same,"Vomiting, All, G < 3",[2],1 (14) n (%)
same,"Vomiting, Related Both, Any G",[2],1 (14) n (%)
same,"Weight decreased, All, G < 3",[2],5 (71) n (%)
same,"Weight decreased, Related Both, Any G",[2],3 (43) n (%)
same,"White blood cell count decreased, All, G < 3",[2],2 (29) n (%)
same,"White blood cell count decreased, All, G ≥ 3",[2],1 (14) n (%)
same,"White blood cell count decreased, Related Both, Any G",[2],2 (29) n (%)
same,"White blood cell count decreased, Related HBI, Any G",[2],2 (29) n (%)
same,"Alanine aminotransferase increased, All, G < 3",[3],1 (14) n (%)
same,"Alanine aminotransferase increased, Related Both, Any G",[3],1 (14) n (%)
same,"Anaemia, All, G < 3",[3],4 (57) n (%)
same,"Anaemia, All, G ≥ 3",[3],1 (14) n (%)
same,"Anaemia, Related Both, Any G",[3],1 (14) n (%)
same,"Anaemia, Related HBI, Any G",[3],2 (29) n (%)
